Test results as given in patent US20240010654A1, “CRYSTALLINE FORMS OF A TYK2 INHIBITOR” (Ventyx Biosciences, Inc., priority 2022, published 2024).
“And” between values parts separate entries of the source, which are not always exact repeats. Equal values may be shown once. Where a name gives a salt, the structure may show the parent alone. Read-outs that look alike come from different tables or passages of the source. Blank lines part the entries; values can stand above or below the molecule they belong to.

Assays:
[1] = Dynamic Vapor Sorption (DVS); type: physicochemical; settings: for Post-DVS analysis by XRPD: after DVS cycle at 25° C.; for hygroscopicity of the material (DVS): 25° C.
Description: DVS data was collected on a Vsorp Dynamic Moisture Sorption Analyzer (ProUmid GmbH & Co. KG, Germany). The sample was placed into a tared sample chamber and automatically weighed. • Sample temperature: 25° C. • Cycle: Full cycle • Adsorption: 0, 10, 20, 30, 40, 50, 60, 70, 80, 90 • Desorption: 80, 70, 60, 50, 40, 30, 20, 10, 0 • Characterize the sample after the DVS experiment by XRPD
Alternatively, DVS analysis was carried out using a Surface Measurement System DVS Intrinsic analyzer. The instrument was calibrated with standard weights. Approximately 15-20 mg of sample was loaded into a pan for analysis. The sample was analyzed at 25° C. in 10% relative humidity (RH) steps from 50% to 95% RH (adsorption cycle), from 95% to 0% RH (desorption cycle), and from 0% to 50% RH (adsorption cycle). The movement from one step to the next occurred either after satisfying the equilibrium criterion of 0.002% weight change (dm/dt) or, if the equilibrium criterion was not met, after ten hours. Samples after the DVS test were tested by XRPD.

[2] = Pharmacokinetics following oral administration in male cynomolgus monkeys; type: in vivo; settings: for AUC/Dose: in ng·h/mL per mg/kg; for Cmax: read-out: C0/Cmax
Description: The gavage tube was flushed with 5 mL of vehicle after administration of the dose. Plasma samples were collected at the following time points: 15 min, 30 min, 1 hr, 2 hr, 4 hr, 6 hr, 8 hr and 24 hr postdose. The concentrations of Compound 1 were determined in plasma.

[3] = Competitive slurry experiments of Compound 1 adipate, Forms 1, 2 and 3; type: physicochemical; settings: from the competitive slurry experiments
Description: The resulting solid was collected by filtration and analyzed by XRPD.
A mixed sample of Compound 1 adipate, […] and Compound 1 adipate, Form 2 was suspended in solvents (40 mg, 0.5 mL) and stirred at 50° C. for 1 h. The resulting solid was collected by filtration and analyzed by XRPD.

[4] = Stability test of Compound 1 adipate, Form 1 (HPLC purity and XRPD after storage); type: physicochemical; settings: for XRPD (crystal form at day 7): after 7 days storage
Description: Samples were prepared in duplicate for each condition. At day 7, the samples were analyzed by HPLC and XRPD to check the purity and the crystal form, respectively.

JAK1/TYK2 = experiment: Co-stimulation assay in lysed whole blood: IFNa (JAK1/TYK2) stimulated STAT1 phosphorylation; type: cell-based; settings: lysed human whole blood, IFNa 100 ng/mL, pSTAT1 by flow cytometry; read-out: IFN-a/Jak1Tyk2 IC50
Description: Example 16: Co-Stimulation Assay in Lysed Whole Blood; JAK2: GM-CSF Stimulated STAT5 Phosphorylation and JAK1/TYK2 Stimulated STAT1 Phosphorylation Assay
Dilute RBC lysis buffer to 1× in distilled water. Add 2 mL blood to 38 mL of 1×RBC-lysis buffer. Incubate for 15 mins at RT, in dark. Spin at 300 g, 5 mins, to collect the pellet. Re-lyse if necessary. Re-suspend pellet in 5 mL of cRPMI.
Aliquot 80 μL of lysed human blood in to wells of 96 deep-well plate. Add 10 μL of (10× conc.) of different concentrations of Compound 1 to all wells except controls (unstained and unstimulated) and mix it with the help of 100 uL multichannel. Add 10 uL of RPMI media in controls. For dilution of Compound 1 and dilution range please refer Appendix. Incubate on water bath or CO2 incubator for 1 hour at 37° C. Add 10 μL of (10× conc.) of cytokine mix (GM-CSF and IFNa) (final conc. 10 ng/mL of GM-CSF and 100 ng/mL of IFNa) to each well except unstimulated and unstained controls and incubate further for 20 minutes on water bath at 37° C.
Add 900 μL of prewarmed 1× Fix/Lyse solution (Appendix) and mix it properly using 1000 μl multichannel, incubate further on water bath at 37° C. for 10 minutes (which includes time of addition). Centrifuge at 800×g for 5 minutes at 40° C.; remove 900 uL of supernatant and add 900 μL of 1×PBS. Centrifuge at 800×g for 5 minutes at 40° C., remove 900 μL of supernatant. […]

[5] = male, cynomolgus monkey, plasma, po, 50 mg/kg, PO BID, 50 mg/kg BID

- water uptake (DVS) ([1]; 95% RH and 25° C.): 0.68%
- Post-DVS analysis by XRPD [1]: no change
SMILES: CNc1cc(Nc2cc(F)cc3c2OCCO3)nc2c(NC(=O)N[C@@H]3C[C@@H]3F)cnn12 [Compound 1, Form B, 1-(5-((7-fluoro-2,3-dihydrobenzo[b][1,4]dioxin-5-yl)amino)-7-(methylamino)pyrazolo[1,5-a]pyrimidin-3-yl)-3-((1R,2S)-2-fluorocyclopropyl)urea]

- water uptake (DVS) ([1]; 95% RH and 25° C.): 5.08%
- Post-DVS analysis by XRPD [1]: no change
- AUC/Dose ([2]; PO BID, 50 mg/kg BID): 761
- AUC(0-t) [2, 5]: 76100 ng·h/mL
- Tmax ([2]; male, cynomolgus monkey, plasma, po, 50 mg/kg, PO BID, 50 mg/kg BID, after second dose, read-out: Tmax): 7 h
- Cmax [2, 5]: 5630 ng/mL
SMILES: CNc1cc(Nc2cc(F)cc3c2OCCO3)nc2c(NC(=O)N[C@@H]3C[C@@H]3F)cnn12 [Compound 1, Form A, 1-(5-((7-fluoro-2,3-dihydrobenzo[b][1,4]dioxin-5-yl)amino)-7-(methylamino)pyrazolo[1,5-a]pyrimidin-3-yl)-3-((1R,2S)-2-fluorocyclopropyl)urea]

Continued, molecule first:

SMILES: CNc1cc(Nc2cc(F)cc3c2OCCO3)nc2c(NC(=O)N[C@@H]3C[C@@H]3F)cnn12 [Compound 1 oxalate, Form 1, 1-(5-((7-fluoro-2,3-dihydrobenzo[b][1,4]dioxin-5-yl)amino)-7-(methylamino)pyrazolo[1,5-a]pyrimidin-3-yl)-3-((1R,2S)-2-fluorocyclopropyl)urea]
- hygroscopicity of the material (DVS) [1]: slightly hygroscopic
- water uptake (DVS) ([1]; 80% RH and 25° C.): 0.37%
- Post-DVS analysis by XRPD [1]: no change
- C0/Cmax ([2]; PO, 5 mg/kg, Form 1, 5 mg/kg): 103 ng/mL
- AUC/Dose ([2]; PO, 5 mg/kg, Form 1, 5 mg/kg): 302
- AUC(0-t) ([2]; male, cynomolgus monkey, plasma, po, 5 mg/kg): 1510 ng·h/mL
- bioavailability ([2]; male, cynomolgus monkey, plasma, po, 5 mg/kg, PO, 5 mg/kg, read-out: % F (oral bioavailability)): 21.6%
- Tmax ([2]; male, cynomolgus monkey, plasma, po, 5 mg/kg, PO, 5 mg/kg, read-out: Tmax): 4.67 h

SMILES: CNc1cc(Nc2cc(F)cc3c2OCCO3)nc2c(NC(=O)N[C@@H]3C[C@@H]3F)cnn12 [Compound 1 adipate, Form 1, 1-(5-((7-fluoro-2,3-dihydrobenzo[b][1,4]dioxin-5-yl)amino)-7-(methylamino)pyrazolo[1,5-a]pyrimidin-3-yl)-3-((1R,2S)-2-fluorocyclopropyl)urea adipate]
- hygroscopicity of the material (DVS) [1]: non-hygroscopic
- water uptake (DVS) ([1]; 80% RH and 25° C.): less than 0.2%
- Post-DVS analysis by XRPD [1]: no change
- relative stability among the three Compound 1 adipate forms [3]: most stable form
- % F (oral bioavailability) ([2]; PO, 5 mg/kg, Form 1, 5 mg/kg): 33.6%
- AUClast ([2]; PO, 5 mg/kg, Form 1, 5 mg/kg): 2347 ng·h/mL
- C0/Cmax ([2]; PO, 5 mg/kg, Form 1, 5 mg/kg): 672 ng/mL
- Tmax ([2]; PO, 5 mg/kg, Form 1, 5 mg/kg): 2.67 h
- AUC/Dose ([2]; PO, 5 mg/kg, Form 1, 5 mg/kg): 469
- AUC/Dose ([2]; PO, 100 mg/kg): 1083
- half-life ([2]; cynomolgus monkey, plasma, PO, 5 mg/kg): 2.66 h
- AUC(0-t) ([2]; male, cynomolgus monkey, plasma, po, 100 mg/kg): 108000 ng·h/mL
- Cmax ([2]; male, cynomolgus monkey, plasma, po, 100 mg/kg, PO, 100 mg/kg): 9770 ng/mL
- Tmax ([2]; male, cynomolgus monkey, plasma, po, 100 mg/kg, PO, 100 mg/kg, read-out: Tmax): 4.67 h
- PK compared to Compound 1 free base, Form A ([2]; oral gavage, Table 9): faster Tmax and higher AUC
- PK compared to Compound 1 oxalate, Form 1 ([2]; oral gavage, Table 10): faster Tmax, higher AUC, and higher oral bioavailability (% F)
- HPLC purity ([4]; 40° C./75% RH (open) @ 7 d, duplicate, batch from DMSO/EtOAc/EtOH): 99.75 and 99.86
- HPLC purity ([4]; 40° C./75% RH (open) @ 7 d, duplicate, batch from DMSO/EtOH/Water): 99.64 and 99.65
- HPLC purity ([4]; 40° C./75% RH (open) @ 7 d, duplicate, batch from acetone/water (19/1)): 99.43 and 99.44
- physical and chemical stability ([4]; 60° C. (capped) and 40° C./75% RH (open) for 1 week): both physically and chemically stable
- HPLC purity ([4]; 60° C./capped @ 7 d, duplicate, batch from DMSO/EtOAc/EtOH): 99.85 and 99.82
- HPLC purity ([4]; 60° C./capped @ 7 d, duplicate, batch from DMSO/EtOH/Water): 99.65/99.65
- HPLC purity ([4]; 60° C./capped @ 7 d, duplicate, batch from acetone/water (19/1)): 99.44/99.44
- HPLC purity ([4]; Day 0, batch from DMSO/EtOAc/EtOH (Example 13Ac)): 99.86
- HPLC purity ([4]; Day 0, batch from DMSO/EtOH/Water (Example 13Ad)): 99.66
- HPLC purity ([4]; Day 0, batch from acetone/water (19/1) (Example 13Ab)): 99.49
- XRPD (crystal form at day 7) ([4]; batch from DMSO/EtOAc/EtOH): Adipate, Form 1
- XRPD (crystal form at day 7) ([4]; batch from DMSO/EtOH/Water): Adipate, Form 1
- XRPD (crystal form at day 7) ([4]; batch from acetone/water (19/1)): Adipate, Form 1

SMILES: CNc1cc(Nc2cc(F)cc3c2OCCO3)nc2c(NC(=O)N[C@@H]3C[C@@H]3F)cnn12 [Compound 1, 1-(5-((7-fluoro-2,3-dihydrobenzo[b][1,4]dioxin-5-yl)amino)-7-(methylamino)pyrazolo[1,5-a]pyrimidin-3-yl)-3-((1R,2S)-2-fluorocyclopropyl)urea]
- IC50 (JAK1/TYK2): < 1000 nM

SMILES: CNc1cc(Nc2cc(F)cc3c2OCCO3)nc2c(NC(=O)N[C@@H]3C[C@@H]3F)cnn12 [Compound 1 mesylate, Form 1, 1-(5-((7-fluoro-2,3-dihydrobenzo[b][1,4]dioxin-5-yl)amino)-7-(methylamino)pyrazolo[1,5-a]pyrimidin-3-yl)-3-((1R,2S)-2-fluorocyclopropyl)urea]
- water uptake (DVS) ([1]; 95% RH and 25° C.): 2.65%
- Post-DVS analysis by XRPD [1]: no change

SMILES: CNc1cc(Nc2cc(F)cc3c2OCCO3)nc2c(NC(=O)N[C@@H]3C[C@@H]3F)cnn12 [Compound 1 phosphate, Form 1, 1-(5-((7-fluoro-2,3-dihydrobenzo[b][1,4]dioxin-5-yl)amino)-7-(methylamino)pyrazolo[1,5-a]pyrimidin-3-yl)-3-((1R,2S)-2-fluorocyclopropyl)urea]
- hygroscopicity of the material (DVS) [1]: slightly hygroscopic
- water uptake (DVS) ([1]; 80% RH and 25° C.): 1.20%
- Post-DVS analysis by XRPD [1]: no change
